Measured values as given in patent US9113629B2, “4-amino-6-(4-substituted-phenyl)-picolinates and 6-amino-2-(4-substituted-phenyl)-pyrimidine-4-carboxylates and their use as herbicides” (DOW AGROSCIENCES LLC, priority 2013, dated 2015).

How the values were obtained:
[1] = Post-emergent Test III, herbicidal activity in wheat and barley; assay type: in vivo, Lolium multiflorum, Lolium rigidum; conditions: Lolium multiflorum, post-emergence, 504 h, read-out: Visual Growth Reduction (%) 21 Days After Application LOLSS; for pest or weed control at 35 g/ha: 35 g ai/ha; for pest or weed control at 70 g/ha: 70 g ai/ha; for pest or weed control at 140 g/ha: 140 g ai/ha
Method in brief: (§1)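 GR20, GR50, GR80 and GR90 come from probit analysis of visual injury scores (0 = none, 100 = complete kill) taken 21 d after treatment. Foliar application was by track sprayer delivering 187 L/ha at five rates, from high down to 1/16×, onto greenhouse plants at the 2–3 leaf stage, with solvent-blank controls.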

[2] = test system: APESV: bentgrass (Apera spica-venti); test: as above; assay type: in vivo; conditions: for pest or weed control at 35 g/ha / pest or weed control at 70 g/ha / pest or weed control at 140 g/ha: Apera spica-venti, post-emergence, 504 h, read-out: Visual Growth Reduction (%) 21 Days After Application APESV; for pest or weed control at 35 g/ha: 35 g ai/ha; for pest or weed control at 70 g/ha: 70 g ai/ha; for pest or weed control at 140 g/ha: 140 g ai/ha; for GR50 APESV / GR80 APESV: probit analysis, 21 days after application; for GR50 APESV: dose for growth reduction of 50 percent; for GR80 APESV: dose for growth reduction of 80 percent
Method in brief: as §1

[3] = test system: HORSS: barley, including spring and winter (Hordeum vulgare); test: as above; assay type: in vivo; conditions: for pest or weed control at 35 g/ha / pest or weed control at 70 g/ha / pest or weed control at 140 g/ha: Hordeum vulgare, post-emergence, 504 h, read-out: Visual Growth Reduction (%) 21 Days After Application HORSS; for pest or weed control at 35 g/ha: 35 g ai/ha; for pest or weed control at 70 g/ha: 70 g ai/ha; for pest or weed control at 140 g/ha: 140 g ai/ha; for GR20 HORSS: probit analysis, dose for growth reduction of 20 percent, 21 days after application, crop
Method in brief: as §1

[4] = test system: KCHSC: kochia (Kochia scoparia); test: as above; assay type: in vivo; conditions: for pest or weed control at 35 g/ha / pest or weed control at 70 g/ha / pest or weed control at 140 g/ha: Bassia scoparia, post-emergence, 504 h, read-out: Visual Growth Reduction (%) 21 Days After Application KCHSC; for pest or weed control at 35 g/ha: 35 g ai/ha; for pest or weed control at 70 g/ha: 70 g ai/ha; for pest or weed control at 140 g/ha: 140 g ai/ha; for GR50 KCHSC / GR80 KCHSC: probit analysis, 21 days after application; for GR50 KCHSC: dose for growth reduction of 50 percent; for GR80 KCHSC: dose for growth reduction of 80 percent
Method in brief: as §1

[5] = test system: LOLSS: ryegrass including, Italian ryegrass (Lolium multiflorum), rigid ryegrass (Lolium rigidum), annual ryegrass (Lolium multiflorum subsp. Gaudini); test: as above; assay type: in vivo; conditions: probit analysis, 21 days after application; for GR50 LOLSS: dose for growth reduction of 50 percent; for GR80 LOLSS: dose for growth reduction of 80 percent
Method in brief: as §1

[6] = test system: MATSS: scented mayweed (Matricaria chamomilla), pineappleweed (Matricaria matricarioides); test: as above; assay type: in vivo; conditions: for pest or weed control at 35 g/ha / pest or weed control at 70 g/ha / pest or weed control at 140 g/ha: Matricaria chamomilla, post-emergence, 504 h, read-out: Visual Growth Reduction (%) 21 Days After Application MATSS; for pest or weed control at 35 g/ha: 35 g ai/ha; for pest or weed control at 70 g/ha: 70 g ai/ha; for pest or weed control at 140 g/ha: 140 g ai/ha; for GR50 MATSS / GR80 MATSS: probit analysis, 21 days after application; for GR50 MATSS: dose for growth reduction of 50 percent; for GR80 MATSS: dose for growth reduction of 80 percent
Method in brief: as §1

[7] = test system: SETVI: green foxtail (Setaria viridis); test: as above; assay type: in vivo; conditions: for pest or weed control at 35 g/ha / pest or weed control at 70 g/ha / pest or weed control at 140 g/ha: Setaria viridis, post-emergence, 504 h, read-out: Visual Growth Reduction (%) 21 Days After Application SETVI; for pest or weed control at 35 g/ha: 35 g ai/ha; for pest or weed control at 70 g/ha: 70 g ai/ha; for pest or weed control at 140 g/ha: 140 g ai/ha; for GR50 SETVI / GR80 SETVI: probit analysis, 21 days after application; for GR50 SETVI: dose for growth reduction of 50 percent; for GR80 SETVI: dose for growth reduction of 80 percent
Method in brief: as §1

[8] = test system: TRZSS: wheat, including spring and winter (Triticum aestivum); test: as above; assay type: in vivo; conditions: for pest or weed control at 35 g/ha / pest or weed control at 70 g/ha / pest or weed control at 140 g/ha: Triticum aestivum, post-emergence, 504 h, read-out: Visual Growth Reduction (%) 21 Days After Application TRZSS; for pest or weed control at 35 g/ha: 35 g ai/ha; for pest or weed control at 70 g/ha: 70 g ai/ha; for pest or weed control at 140 g/ha: 140 g ai/ha; for GR20 TRZSS: probit analysis, dose for growth reduction of 20 percent, 21 days after application, crop
Method in brief: as §1

SMILES	pest or weed control at 35 g/ha [1]	pest or weed control at 70 g/ha [1]	pest or weed control at 140 g/ha [1]	pest or weed control at 35 g/ha [2]	pest or weed control at 70 g/ha [2]	pest or weed control at 140 g/ha [2]	GR50 APESV [2]	GR80 APESV [2]	pest or weed control at 35 g/ha [3]	pest or weed control at 70 g/ha [3]	pest or weed control at 140 g/ha [3]	GR20 HORSS [3]	pest or weed control at 35 g/ha [4]	pest or weed control at 70 g/ha [4]	pest or weed control at 140 g/ha [4]	GR50 KCHSC [4]	GR80 KCHSC [4]	GR50 LOLSS [5]	GR80 LOLSS [5]	pest or weed control at 35 g/ha [6]	also measured
COC(=O)c1nc(-c2ccc(Br)c(F)c2F)cc(N)c1Cl [Compound 114, methyl 4-amino-6-(4-bromo-2,3-difluorophenyl)-3-chloropicolinate]	0 to 29%	0 to 29%	0 to 29%	0 to 29%	0 to 29%	0 to 29%	>140 g ai/ha	>140 g ai/ha	0 to 29%	30 to 44%	30 to 44%	42 g ai/ha	60 to 74%	60 to 74%	75 to 84%	3 g ai/ha	>140 g ai/ha	>140 g ai/ha	>140 g ai/ha	0 to 29%	pest or weed control at 70 g/ha [6]: 0 to 29%; pest or weed control at 140 g/ha [6]: 0 to 29%; GR50 MATSS [6]: >140 g ai/ha; GR80 MATSS [6]: >140 g ai/ha; pest or weed control at 35 g/ha [7]: 0 to 29%; pest or weed control at 70 g/ha [7]: 0 to 29%; pest or weed control at 140 g/ha [7]: 0 to 29%; GR50 SETVI [7]: >140 g ai/ha; GR80 SETVI [7]: >140 g ai/ha; pest or weed control at 35 g/ha [8]: 30 to 44%; pest or weed control at 70 g/ha [8]: 45 to 59%; pest or weed control at 140 g/ha [8]: 45 to 59%; GR20 TRZSS [8]: 16 g ai/ha
COC(=O)c1nc(-c2ccc(I)cc2)c(F)c(N)c1Cl [Compound 118, Methyl 4-amino-6-(4-iodophenyl)-3-chloro-5-fluoropicolinate]	30 to 44%	60 to 74%	75 to 84%	60 to 74%	75 to 84%	85 to 94%	22 g ai/ha	60 g ai/ha	85 to 94%	85 to 94%	85 to 94%	1 g ai/ha	85 to 94%	85 to 94%	95 to 100%	3 g ai/ha	17 g ai/ha	49 g ai/ha	121 g ai/ha	60 to 74%	pest or weed control at 70 g/ha [6]: 75 to 84%; pest or weed control at 140 g/ha [6]: 85 to 94%; GR50 MATSS [6]: 14 g ai/ha; GR80 MATSS [6]: 60 g ai/ha; pest or weed control at 35 g/ha [7]: 0 to 29%; pest or weed control at 70 g/ha [7]: 30 to 44%; pest or weed control at 140 g/ha [7]: 60 to 74%; GR50 SETVI [7]: 91 g ai/ha; GR80 SETVI [7]: 184 g ai/ha; pest or weed control at 35 g/ha [8]: 75 to 84%; pest or weed control at 70 g/ha [8]: 85 to 94%; pest or weed control at 140 g/ha [8]: 85 to 94%; GR20 TRZSS [8]: 0 g ai/ha
